Measured values published in the NIST ThermoML archive (doi:10.1021/je900916e).

Assay: cn = amount concentration of the nth substance listed, in mol/dm3
Conditions: 101 kPa, Liquid, Advanced Conductivity Orion 162A

CC[N+](CC)(CC)CC.O=C([O-])C(F)(F)C(F)(F)C(F)(F)C(F)(F)C(F)(F)C(F)(F)C(F)(F)F [tetraethylammonium perfluorooctanoate] + O
Conditions	electrical conductivity [S/m]
288.15 K, c1 = 0.000744	0.00332
288.15 K, c1 = 0.001478	0.00651
288.15 K, c1 = 0.0022	0.0094
288.15 K, c1 = 0.002913	0.0122
288.15 K, c1 = 0.003614	0.015
288.15 K, c1 = 0.004306	0.0176
288.15 K, c1 = 0.005101	0.0205
288.15 K, c1 = 0.005882	0.0233
288.15 K, c1 = 0.006651	0.0258
288.15 K, c1 = 0.007407	0.0275
288.15 K, c1 = 0.008152	0.0283
288.15 K, c1 = 0.009091	0.0292
288.15 K, c1 = 0.01011	0.0301
288.15 K, c1 = 0.01131	0.0311
288.15 K, c1 = 0.01266	0.0322
288.15 K, c1 = 0.01398	0.0332
288.15 K, c1 = 0.01543	0.0343
293.15 K, c1 = 0.000662	0.00339
293.15 K, c1 = 0.001316	0.00649
293.15 K, c1 = 0.001961	0.00944
293.15 K, c1 = 0.002597	0.0123
293.15 K, c1 = 0.003226	0.0149
293.15 K, c1 = 0.003846	0.0176
293.15 K, c1 = 0.004458	0.0201
293.15 K, c1 = 0.005063	0.0226
293.15 K, c1 = 0.00566	0.0249
293.15 K, c1 = 0.00625	0.027
293.15 K, c1 = 0.006832	0.029
293.15 K, c1 = 0.007407	0.0301
293.15 K, c1 = 0.007975	0.0309
293.15 K, c1 = 0.008536	0.0316
293.15 K, c1 = 0.00942	0.0325
293.15 K, c1 = 0.01029	0.0334
293.15 K, c1 = 0.01114	0.0342
293.15 K, c1 = 0.01218	0.0351
293.15 K, c1 = 0.01319	0.036
293.15 K, c1 = 0.01419	0.0369
293.15 K, c1 = 0.01516	0.0378
298.15 K, c1 = 0.000662	0.00389
298.15 K, c1 = 0.001316	0.00743
298.15 K, c1 = 0.001961	0.0108
298.15 K, c1 = 0.002597	0.0141
298.15 K, c1 = 0.003226	0.0172
298.15 K, c1 = 0.003846	0.0202
298.15 K, c1 = 0.004458	0.0231
298.15 K, c1 = 0.005063	0.0259
298.15 K, c1 = 0.00566	0.0286
298.15 K, c1 = 0.00625	0.0313
298.15 K, c1 = 0.006832	0.0329
298.15 K, c1 = 0.007407	0.0339
298.15 K, c1 = 0.007975	0.0348
298.15 K, c1 = 0.008536	0.0356
298.15 K, c1 = 0.00942	0.0366
298.15 K, c1 = 0.01029	0.0376
298.15 K, c1 = 0.01114	0.0386
298.15 K, c1 = 0.01218	0.0397
298.15 K, c1 = 0.01319	0.0409
298.15 K, c1 = 0.01419	0.042
298.15 K, c1 = 0.01516	0.0431
303.15 K, c1 = 0.000662	0.00431
303.15 K, c1 = 0.001316	0.00815
303.15 K, c1 = 0.001961	0.0119
303.15 K, c1 = 0.002597	0.0154
303.15 K, c1 = 0.003226	0.0189
303.15 K, c1 = 0.003846	0.0222
303.15 K, c1 = 0.004458	0.0254
303.15 K, c1 = 0.005063	0.0285
303.15 K, c1 = 0.00566	0.0314
303.15 K, c1 = 0.00625	0.0344
303.15 K, c1 = 0.006832	0.0365
303.15 K, c1 = 0.007407	0.038
303.15 K, c1 = 0.007975	0.0389
303.15 K, c1 = 0.008536	0.0398
303.15 K, c1 = 0.00942	0.0409
303.15 K, c1 = 0.01029	0.042
303.15 K, c1 = 0.01114	0.0431
303.15 K, c1 = 0.01218	0.0444
303.15 K, c1 = 0.01319	0.0457
303.15 K, c1 = 0.01419	0.047
303.15 K, c1 = 0.01516	0.0483
308.15 K, c1 = 0.000744	0.00544
308.15 K, c1 = 0.001478	0.0102
308.15 K, c1 = 0.0022	0.0148
308.15 K, c1 = 0.002913	0.0193
308.15 K, c1 = 0.003614	0.0234
308.15 K, c1 = 0.004306	0.0275
308.15 K, c1 = 0.004988	0.0316
308.15 K, c1 = 0.00566	0.0354
308.15 K, c1 = 0.006323	0.0391
308.15 K, c1 = 0.006977	0.0419
308.15 K, c1 = 0.007621	0.0433
308.15 K, c1 = 0.008467	0.0448
308.15 K, c1 = 0.009297	0.0462
308.15 K, c1 = 0.01011	0.0475
308.15 K, c1 = 0.01111	0.049
308.15 K, c1 = 0.01228	0.0508
308.15 K, c1 = 0.01361	0.0527
308.15 K, c1 = 0.01489	0.0545
308.15 K, c1 = 0.01632	0.0565
313.15 K, c1 = 0.000662	0.00523
313.15 K, c1 = 0.001316	0.0101
313.15 K, c1 = 0.001961	0.0146
313.15 K, c1 = 0.002597	0.0189
313.15 K, c1 = 0.003226	0.0231
313.15 K, c1 = 0.003846	0.0272
313.15 K, c1 = 0.004458	0.0312
313.15 K, c1 = 0.005063	0.0351
313.15 K, c1 = 0.00566	0.0388
313.15 K, c1 = 0.00625	0.0422
313.15 K, c1 = 0.006832	0.0455
313.15 K, c1 = 0.007407	0.047
313.15 K, c1 = 0.007975	0.0482
313.15 K, c1 = 0.008536	0.0493
313.15 K, c1 = 0.00942	0.0508
313.15 K, c1 = 0.01029	0.0523
313.15 K, c1 = 0.01114	0.0537
313.15 K, c1 = 0.01218	0.0554
313.15 K, c1 = 0.01319	0.0571
313.15 K, c1 = 0.01419	0.0587
313.15 K, c1 = 0.01516	0.0603
318.15 K, c1 = 0.000744	0.00628
318.15 K, c1 = 0.001478	0.0121
318.15 K, c1 = 0.0022	0.0177
318.15 K, c1 = 0.002913	0.023
318.15 K, c1 = 0.003614	0.028
318.15 K, c1 = 0.004306	0.033
318.15 K, c1 = 0.004988	0.0379
318.15 K, c1 = 0.00566	0.0424
318.15 K, c1 = 0.006323	0.0468
318.15 K, c1 = 0.006977	0.0504
318.15 K, c1 = 0.007621	0.0534
318.15 K, c1 = 0.008257	0.0548
318.15 K, c1 = 0.009091	0.0566
318.15 K, c1 = 0.00991	0.0583
318.15 K, c1 = 0.01091	0.0602
318.15 K, c1 = 0.01209	0.0624
318.15 K, c1 = 0.01342	0.0646
318.15 K, c1 = 0.01471	0.0667
318.15 K, c1 = 0.01614	0.0692
